# Laboratory results: patent US9725432B2, “Pyrimidine derivatives for the treatment of bacterial diseases” (JANSSEN R&D IRELAND, priority 2012, dated 2017)
# What was measured:
# Staphylococcus aureus [1] = experiment: Antibacterial susceptibility testing: IC90 determination (broth microdilution, resazurin fluorescence); format: cell-based; settings: 90% inhibitory concentration for bacterial growth, Mueller Hinton broth, 35° C., 16-20 hours, strain not given
# Experimental: Preparation of Bacterial Suspensions for Susceptibility Testing
# The following bacteria were used: Staphylococcus aureus ATCC 29213, methicillin-resistant Staphylococcus aureus (MRSA) ATCC 700788 and Escherichia coli ATCC 35218. The bacteria used in this study were grown overnight in flasks containing 100 ml Mueller-Hinton broth (Difco cat. nr. 0757-17) in sterile de-ionized water, with shaking, at 37° C. Stocks were store at −70° C. until use.
# Bacteria were incubated on a tryptic soy agar plate containing 5% sheep blood (Becton Dickinson cat. nr. 254053) for 18-24 hours at 35° C. in aerobic conditions (first passage). For the second passage, fresh Mueller-Hinton broth is inoculated with 5-10 colonies and grown overnight at 35° C. until turbidity (reaching log-phase) in aerobic conditions is reached. The bacterial suspension is then adjusted to 0.5 McFarland density and further diluted 1:100 in Mueller Hinton broth medium. This is used as inoculum.
# Antibacterial Susceptibility Testing: IC90 Determination
# MIC assays were performed by the broth microdilution method in a 96-well format (flat-bottom microtitre plates) with a final volume of 0.1 ml Mueller Hinton broth containing two-fold serial dilutions of compounds and inoculated with 5×10^5 CFU/ml of bacteria (standard inoculum size according to CLSI guidelines). Inhibitors are typically varied over the range of 63 to 0.49 μM. The final DMSO concentration in the assay was 1.25% (maximum tolerable DMSO concentration=6%). In the assays where the effect of human serum on the activity of the compounds against S. aureus was tested, human serum was added at a final concentration of 10%. The plates were incubated at 35° C. for 16-20 hours. At the end of incubation the bacterial growth was quantified fluorometrically. For this, resazurin was added to all wells and the plates were re-incubated. The incubation time is dependent on the type of bacteria. A change in color from blue to pink indicated the growth of bacteria. The fluorescence was read in computer-controlled fluorometer (Fluoroskan Ascent FL, Labsystems) at an excitation wavelength 540 nm and an emission wavelength of 590 nm. The % growth inhibition achieved by the compounds was calculated according to standard methods. The IC90 (expressed in μg/ml) was defined as the 90% inhibitory concentration for bacterial growth. A panel of reference compounds were simultaneously tested for QC approval.
# Cytotoxicity MTT assay = format: cell-based; settings: human, HelaM cells, concentration that causes 50% reduction in cell viability
# Experimental: Cytotoxicity of the compounds was evaluated using the MTT assay. Human HelaM cells grown in 96-well plates were exposed to serial dilutions of the tested compounds (final volume of 0.2 ml) and incubated for 72 hours at 37° C. and 5% CO2 Inhibitors are typically varied over the range of 25 to 0.8 μM. The final DMSO concentration in the assay is 0.5%. MTT (3-(4,5-Dimethylthiazol-2-yl)-2,5-diphenyltetrazolium bromide, a tetrazole) was added and reduced to purple formazan only in living cells. Solubilization of the formazan crystals was achieved by adding 100 μl 2-propanol. Cell viability was determined by measuring the absorbance of the reduced formazan, giving a purple color, at 540 nm and 690 nm. The absorbance measured at 690 nm was automatically subtracted from the absorbance at 540 nm, to eliminate the effects of non-specific absorption. The percent cytotoxicity achieved by the compounds was calculated according to standard methods. Cytotoxicity is reported as CC50, the concentration that causes a 50% reduction in cell viability.
# Staphylococcus aureus [2] = experiment: MIC determination of compounds on ECO/PAE/STA in microplates; format: cell-based; settings: lowest concentration with no growth (90% inhibition of growth), 18-20 hours at 37° C., visual, strain not given
SMILES,IC90 (Staphylococcus aureus [1]) [µg/mL],CC50 at 72 h (Cytotoxicity MTT assay) [µg/mL],melting point [°C],MIC90 (Staphylococcus aureus [2]) [µg/mL]
CN(C)c1cccc(-c2cnc(-c3ccncc3)nc2C2CCN(CC(C)(C)C)CC2)c1 [Compound 37],3.04,9.2,140 to 142,
Cc1ccc(-c2cnc(-c3ccncc3)nc2C2CCN(CC(C)(C)C)CC2)cc1 [Compound 38],5.04,> 4,170 to 171,
CC(C)(C)CN1CCC(c2nc(-c3ccncc3)ncc2-c2cccc(Cl)c2)CC1 [Compound 39],0.76,7.3,119 to 121,
CC(C)(C)CN1CCC(c2nc(-c3ccncc3)ncc2-c2cccc(C(F)(F)F)c2)CC1 [Compound 40],0.52,7,112 to 114,
COc1cccc(-c2cnc(-c3ccncc3)nc2C2CCN(Cc3ccccc3F)CC2)c1 [Compound 41],8.66,7.7,139,
COc1cccc(-c2cnc(-c3ccncc3)nc2C2CCN(Cc3ccccc3C#N)CC2)c1 [Compound 42],6.75,5.1,158,
COc1cccc(-c2cnc(-c3ccncc3)nc2C2CCN(Cc3ccc(F)c(F)c3)CC2)c1 [Compound 43],2.24,6.2,158,
COc1cccc(-c2cnc(-c3ccncc3)nc2C2CCN(Cc3ccc(Cl)cc3)CC2)c1 [Compound 44],2.23,7,131,
COc1cccc(-c2cnc(-c3ccncc3)nc2C2CCN(Cc3cccc(Cl)c3)CC2)c1 [Compound 45],3.49,4.9,133,
COc1cccc(-c2cnc(-c3ccncc3)nc2C2CCN(Cc3ccccc3C(F)(F)F)CC2)c1 [Compound 46],4.1,4.2,144,
COc1cccc(-c2cnc(-c3ccncc3)nc2C2CCN(Cc3c(F)cccc3F)CC2)c1 [Compound 47],1.74,2.1,184,
COc1cccc(-c2cnc(-c3ccncc3)nc2C2CCN(Cc3cc(F)cc(F)c3)CC2)c1 [Compound 48],3.16,2.2,181,
C#CCN1CCC(c2nc(-c3ccncc3)ncc2-c2cccc(OC)c2)CC1 [Compound 49],12.2,> 9.7,160,
Cc1ccccc1-c1cnc(-c2ccncc2)nc1C1CCN(CC(C)(C)C)CC1 [Compound 50],9.61,> 4,208,
CC(C)(C)CN1CCC(c2nc(-c3ccncc3)ncc2-c2cccc(C#N)c2)CC1 [Compound 54],1.29,> 10.3,155,
COc1cccc(-c2cnc(-c3ccncc3)nc2C2CCN(CC(F)F)CC2)c1 [Compound 56],1.49,> 10.3,123,
COc1cccc(-c2cnc(-c3ccncc3)nc2C2CCN(CC(C)(C)C#N)CC2)c1 [Compound 57],0.39,7.3,117,
N#Cc1cccc(-c2cnc(-c3ccncc3)nc2C2CCN(CC(F)(F)F)CC2)c1 [Compound 58],0.69,> 10.6,168 to 172,
N#Cc1cccc(-c2cnc(-c3ccncc3)nc2C2CCCN(CC(F)(F)F)C2)c1 (stereo not shown) [Compound 59],> 26.7,> 10.6,163 to 164,
N#Cc1cccc(-c2cnc(-c3cccnc3)nc2C2CCCN(CC(F)(F)F)C2)c1 (stereo not shown) [Compound 60],> 26.7,> 10.6,52 to 92,
CC(C)(C)CN1CCCC(c2nc(-c3cccnc3)ncc2-c2cccc(C#N)c2)C1 (stereo not shown) [Compound 62],> 25.9,> 10.3,57 to 113,

SMILES,IC90 (Staphylococcus aureus [1]) [µg/mL],CC50 at 72 h (Cytotoxicity MTT assay) [µg/mL],melting point [°C],MIC90 (Staphylococcus aureus [2]) [µg/mL]
CC(C)(C)CN1CCC(c2nc(C3CC3)ncc2-c2cccc(C#N)c2)CC1 [Compound 63],2.74,> 9.4,125 to 126,
CC(C)(C)CN1CCC(c2nc(C(F)(F)F)ncc2-c2cccc(C#N)c2)CC1 [Compound 64],1.46,> 10.1,114 to 116,
CC(C)(C)CN1CCC(c2nc(-c3ccc(C#N)cc3)ncc2-c2cccc(C#N)c2)CC1 [Compound 65],0.13,> 4.4,247 to 249,
CC(C)(C)CN1CCC(c2nc(-c3ccc(F)cc3)ncc2-c2cccc(C#N)c2)CC1 [Compound 66],< 0.21,8.8,154 to 158,
COc1ccc(-c2ncc(-c3cccc(C#N)c3)c(C3CCN(CC(C)(C)C)CC3)n2)cn1 [Compound 67],0.81,> 11.1,144 to 145,
CC(C)(C)CN1CCC(c2nc(-c3cncnc3)ncc2-c2cccc(C#N)c2)CC1 [Compound 68],6.1,> 10.4,163 to 170,
CC(C)(C)CN1CCC(c2nc(-c3cccnc3)ncc2-c2cccc(C#N)c2)CC1 [Compound 69],3.02,> 10.3,148 to 150,
CC(C)(C)CNCCNc1nc(-c2ccncc2)ncc1-c1cccc(C#N)c1 [Compound 73],,,,> 64
CC(C)(C)CN1CCN(c2nc(-c3ccncc3)ncc2-c2cccc(C#N)c2)CC1 [Compound 74],,,155 to 164,0.125
CC(C)(C#N)CN1CCC(c2nc(-c3ccncc3)ncc2-c2cccc(C#N)c2)CC1 [Compound 75],,,79 to 87,0.5
N#Cc1cccc(-c2cnc(-c3ccc(F)cc3)nc2C2CCN(CC(F)(F)F)CC2)c1 [Compound 76],,,157 to 158,0.125
CC(C)(C)C(=O)N1CCC(c2nc(-c3ccc(F)cc3)ncc2-c2cccc(C#N)c2)CC1 [Compound 77],,,75 to 80,0.25
COc1cccc(-c2cnc(-c3ccc(F)cc3)nc2C2CCN(CC(C)(C)C#N)CC2)c1 [Compound 78],,,119,0.125
COc1cccc(-c2cnc(-c3ccc(OC)nc3)nc2C2CCN(CC(F)(F)F)CC2)c1 [Compound 79],,,,0.125
COc1cccc(-c2cnc(-c3ccc(OC)nc3)nc2C2CCN(CC(C)(C)C#N)CC2)c1 [Compound 81],,,,0.125
COc1cccc(-c2cnc(-c3ccc(Br)cc3)nc2C2CCN(CC(C)(C)C#N)CC2)c1 [Compound 88],,,,0.125
CC(C)(C)S(=O)(=O)N1CCC(c2nc(-c3ccc(F)cc3)ncc2-c2cccc(C#N)c2)CC1 [Compound 89],,,,0.125
COc1cccc(-c2cnc(-c3ccc(Br)cc3)nc2C2CCN(CC(C)(C)C)CC2)c1 [Compound 90],,,,0.25
C#Cc1ccc(-c2ncc(-c3cccc(OC)c3)c(C3CCN(CC(C)(C)C)CC3)n2)cc1 [Compound 91],,,,0.5
C#Cc1ccc(-c2ncc(-c3cccc(OC)c3)c(C3CCN(CC(C)(C)C#N)CC3)n2)cc1 [Compound 92],,,,0.125
C#Cc1ccc(-c2ncc(-c3cccc(OC)c3)c(C3CCN(CC(F)(F)F)CC3)n2)cc1 [Compound 93],,,,0.125
